# From patent US20150024072A1, “METHODS OF TREATING A SKIN CONDITION WITH MALVA NEGLECTA” (Johnson & Johnson Consumer Companies, Inc., priority 2013, published 2015)
# Test system: Human dermal fibroblasts
# Assay: Hyaluronic Acid (HA) Secretion (Assay 4, ELISA)
# Format: cell-based
# Settings: 20 ng/ml (positive control), 48 hours post-treatment
# Procedure: Human dermal fibroblasts were maintained in flask in growth medium consisting of DMEM plus 10% fetal bovine serum, 50 units/ml penicillin and 50 μg/ml streptomycin. Cells were seeded at 10,000 cells per well in a 96 well plate. After 24 hours incubation, cells were treated with test articles dissolved in DMSO or DMSO without extracts (as control) prepared in DMEM+2% FBS. Culture media was collected at 48 hours post-treatment, and measured for HA (Hyaluronic acid) secretion using Hyaluronan ELISA kit (Echelon, cat. #K-1200) following the manufacturer protocol. To assess activity, the colorimetric chance was measured at 405 nm and the results expressed as a fold change over untreated controls.
substance,measurement,value
TGF-b,HA secretion Fold Change,2.54 fold
